Source: PubChem BioAssay (NCI)
Where “and” joins values, the source holds several entries; their conditions need not be identical. Identical values can stand only once.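 Five concentrations, 48 hours, 96-well plates. GI50 marks 50% less growth. TGI: total growth inhibition.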

Legend:
Assay in all cases: NCI tumour cell line growth inhibition, 48 h
CCRF-CEM leukemia = test system: CCRF-CEM leukemia
HOP-92 NSCLC = test system: HOP-92 NSCLC
M14 melanoma = test system: M14 melanoma
MCF7 breast = test system: MCF7 breast
OVCAR-5 ovarian = test system: OVCAR-5 ovarian
RPMI-8226 leukemia = test system: RPMI-8226 leukemia
SF-539 CNS = test system: SF-539 CNS
T-47D breast = test system: T-47D breast
UACC-257 melanoma = test system: UACC-257 melanoma
UACC-62 melanoma = test system: UACC-62 melanoma

Q: Which results are given for O=C1C(=O)c2c(nc3ccc(C(F)(F)F)cn23)-c2ccccc21?
A: GI50 (CCRF-CEM leukemia): 0.39 µM; GI50 (HOP-92 NSCLC): 0.265 µM; TGI (HOP-92 NSCLC): 0.773 µM; GI50 (M14 melanoma): 0.18 µM; TGI (M14 melanoma): 0.329 µM; GI50 (MCF7 breast): 0.168 µM; TGI (MCF7 breast): 0.4 µM; GI50 (OVCAR-5 ovarian): 0.414 µM; TGI (OVCAR-5 ovarian): 0.998 µM; GI50 (RPMI-8226 leukemia): 0.169 µM; TGI (RPMI-8226 leukemia): 0.53 µM; GI50 (SF-539 CNS): 0.169 µM; TGI (SF-539 CNS): 0.313 µM; GI50 (T-47D breast): 0.214 µM; TGI (T-47D breast): 0.57 µM; GI50 (UACC-257 melanoma): 0.193 µM; TGI (UACC-257 melanoma): 0.363 µM; GI50 (UACC-62 melanoma): 0.179 µM; TGI (UACC-62 melanoma): 0.343 µM

Q: Which results are given for COC(=O)C(C(=O)C(=O)Nc1c(C)cccc1C(C)(C)C)c1nc2ccc(Cl)cc2[nH]c1=O (configuration not stated)?
A: TGI (CCRF-CEM leukemia): > 100 µM; TGI (HOP-92 NSCLC): > 100 µM; TGI (M14 melanoma): > 100 µM; TGI (MCF7 breast): > 100 µM; TGI (OVCAR-5 ovarian): > 100 µM; TGI (RPMI-8226 leukemia): > 100 µM; TGI (SF-539 CNS): > 100 µM; TGI (T-47D breast): > 100 µM; TGI (UACC-257 melanoma): > 100 µM; TGI (UACC-62 melanoma): > 100 µM

Q: Which results are given for COc1cc(N2C(=O)[C@H](Cl)C2c2ccc(SC)cc2)cc(OC)c1OC (some centres not stated)?
A: GI50 (CCRF-CEM leukemia): 0.305 µM; TGI (CCRF-CEM leukemia): > 100 µM; GI50 (HOP-92 NSCLC): 0.214 µM; TGI (HOP-92 NSCLC): > 100 µM; GI50 (MCF7 breast): 0.0356 µM; TGI (MCF7 breast): > 100 µM; GI50 (OVCAR-5 ovarian): 0.411 µM; TGI (OVCAR-5 ovarian): > 100 µM; GI50 (RPMI-8226 leukemia): 0.348 µM; TGI (RPMI-8226 leukemia): 10.5 µM; GI50 (SF-539 CNS): 0.0307 µM; TGI (SF-539 CNS): 0.163 µM; GI50 (T-47D breast): 41.3 µM; TGI (T-47D breast): > 100 µM; GI50 (UACC-257 melanoma): 32.2 µM; TGI (UACC-257 melanoma): > 100 µM; GI50 (UACC-62 melanoma): 0.0712 µM; TGI (UACC-62 melanoma): 91.5 µM

Q: How did the TGI (CCRF-CEM leukemia) turn out when CCOc1c(Br)cc(Br)cc1C=C(C#N)C#N was run?
A: > 10 µM

Q: And the TGI (HOP-92 NSCLC)?
A: > 10 µM

Q: And the TGI (MCF7 breast)?
A: > 10 µM

Q: What about the TGI (RPMI-8226 leukemia) of the same molecule?
A: > 10 µM

Q: And the TGI (SF-539 CNS)?
A: 6.21 µM

Q: What about the TGI (T-47D breast) of the same molecule?
A: > 10 µM

Q: What about the TGI (UACC-62 melanoma) of the same molecule?
A: > 10 µM

Q: Which results are given for Cn1c(COC(=O)NCCc2ccccn2)nc2c(N3CCOCC3)nc(Cl)nc21?
A: GI50 (CCRF-CEM leukemia): 0.62 µM; TGI (CCRF-CEM leukemia): 12.6 µM; GI50 (HOP-92 NSCLC): 1.13 µM; TGI (HOP-92 NSCLC): 3.22 µM; GI50 (M14 melanoma): 1.53 µM; TGI (M14 melanoma): 3.34 µM; GI50 (MCF7 breast): 0.946 µM; TGI (MCF7 breast): 2.95 µM; GI50 (OVCAR-5 ovarian): 1.73 µM; TGI (OVCAR-5 ovarian): 3.68 µM; GI50 (SF-539 CNS): 1.48 µM; TGI (SF-539 CNS): 2.84 µM; GI50 (T-47D breast): 1.65 µM; TGI (T-47D breast): 3.67 µM; GI50 (UACC-257 melanoma): 1.53 µM; TGI (UACC-257 melanoma): 3.28 µM; GI50 (UACC-62 melanoma): 1.65 µM; TGI (UACC-62 melanoma): 3.29 µM

Q: What does the source list for [N-]=[N+]=CC(=O)CCC(N)C(=O)O (configuration not stated)?
A: GI50 (CCRF-CEM leukemia): 5.82 µM; TGI (CCRF-CEM leukemia): 54.6 µM and 157 µM; TGI (HOP-92 NSCLC): 69.3 µM; GI50 (M14 melanoma): 10.6 µM; TGI (M14 melanoma): > 250 µM; GI50 (MCF7 breast): 0.641 µM; TGI (MCF7 breast): > 250 µM; TGI (OVCAR-5 ovarian): > 186 µM; GI50 (SF-539 CNS): 6.31 µM; TGI (SF-539 CNS): 48.7 µM and > 250 µM; GI50 (T-47D breast): 16.2 µM; TGI (T-47D breast): > 250 µM; GI50 (UACC-257 melanoma): 78.5 µM; TGI (UACC-257 melanoma): > 250 µM; GI50 (UACC-62 melanoma): 3.82 µM; TGI (UACC-62 melanoma): > 147 µM

Q: With COc1ccc(-c2ccc(C3CC(c4ccccc4)=NN3)o2)c([N+](=O)[O-])c1 (configuration not stated) as the molecule, how does the GI50 (CCRF-CEM leukemia) read?
A: 23.2 µM

Q: And the TGI (CCRF-CEM leukemia)?
A: 72.2 µM

Q: And the GI50 (HOP-92 NSCLC)?
A: 24.8 µM

Q: And the TGI (HOP-92 NSCLC)?
A: 68.2 µM

Q: What about the GI50 (M14 melanoma) of the same molecule?
A: 51.9 µM

Q: What about the TGI (M14 melanoma) of the same molecule?
A: > 100 µM

Q: And the GI50 (MCF7 breast)?
A: 31.8 µM

Q: What about the TGI (MCF7 breast) of the same molecule?
A: > 100 µM

Q: And the GI50 (OVCAR-5 ovarian)?
A: > 100 µM

Q: What about the TGI (OVCAR-5 ovarian) of the same molecule?
A: > 100 µM

Q: What about the GI50 (RPMI-8226 leukemia) of the same molecule?
A: 31 µM

Q: What about the TGI (RPMI-8226 leukemia) of the same molecule?
A: > 100 µM

Q: And the GI50 (SF-539 CNS)?
A: 64.7 µM

Q: What about the TGI (SF-539 CNS) of the same molecule?
A: > 100 µM

Q: And the GI50 (T-47D breast)?
A: > 100 µM

Q: And the TGI (T-47D breast)?
A: > 100 µM

Q: What about the GI50 (UACC-62 melanoma) of the same molecule?
A: 67.7 µM

Q: What about the TGI (UACC-62 melanoma) of the same molecule?
A: > 100 µM

Q: With CC(C)C[C@@H](N)[C@@H](O)C(=O)N[C@H](C(=O)N[C@H](C(=O)N[C@@H](CC(=O)O)C(=O)O)C(C)C)C(C)C as the molecule, how does the GI50 (CCRF-CEM leukemia) read?
A: > 20 µM

Q: And the TGI (CCRF-CEM leukemia)?
A: > 20 µM

Q: And the GI50 (HOP-92 NSCLC)?
A: 10.3 µM

Q: What about the TGI (HOP-92 NSCLC) of the same molecule?
A: > 20 µM

Q: What about the GI50 (M14 melanoma) of the same molecule?
A: > 20 µM

Q: And the TGI (M14 melanoma)?
A: > 20 µM

Q: And the GI50 (MCF7 breast)?
A: > 20 µM

Q: And the TGI (MCF7 breast)?
A: > 20 µM

Q: What about the GI50 (OVCAR-5 ovarian) of the same molecule?
A: > 20 µM

Q: And the TGI (OVCAR-5 ovarian)?
A: > 20 µM

Q: And the GI50 (SF-539 CNS)?
A: > 20 µM

Q: What about the TGI (SF-539 CNS) of the same molecule?
A: > 20 µM

Q: What about the GI50 (T-47D breast) of the same molecule?
A: > 20 µM

Q: What about the TGI (T-47D breast) of the same molecule?
A: > 20 µM

Q: What about the GI50 (UACC-257 melanoma) of the same molecule?
A: > 20 µM

Q: What about the TGI (UACC-257 melanoma) of the same molecule?
A: > 20 µM

Q: And the GI50 (UACC-62 melanoma)?
A: > 20 µM

Q: And the TGI (UACC-62 melanoma)?
A: > 20 µM

Q: What does the source list for COc1cc2c(cc1C)NC(=O)/C2=C/c1ccnc2ccccc12?
A: GI50 (HOP-92 NSCLC): 12.4 µM; TGI (HOP-92 NSCLC): > 50 µM; GI50 (M14 melanoma): > 50 µM; TGI (M14 melanoma): > 50 µM; GI50 (MCF7 breast): 8.72 µM; TGI (MCF7 breast): > 50 µM; GI50 (OVCAR-5 ovarian): 30 µM; TGI (OVCAR-5 ovarian): > 50 µM; GI50 (RPMI-8226 leukemia): 19.7 µM; TGI (RPMI-8226 leukemia): > 50 µM; GI50 (SF-539 CNS): 20.8 µM; TGI (SF-539 CNS): > 50 µM; GI50 (T-47D breast): 28.7 µM; TGI (T-47D breast): > 50 µM; GI50 (UACC-257 melanoma): 9.77 µM; TGI (UACC-257 melanoma): 48.9 µM; GI50 (UACC-62 melanoma): 13.1 µM; TGI (UACC-62 melanoma): > 50 µM

Q: How did the GI50 (HOP-92 NSCLC) turn out when O=S(=O)(NC1=NCCN1C(=S)SN1CCn2c1nsc2=S)c1ccc(Cl)cc1 was run?
A: 11.4 µM

Q: What about the TGI (HOP-92 NSCLC) of the same molecule?
A: 25.2 µM

Q: What about the GI50 (M14 melanoma) of the same molecule?
A: 12.9 µM

Q: What about the TGI (M14 melanoma) of the same molecule?
A: 32.5 µM

Q: What about the GI50 (MCF7 breast) of the same molecule?
A: 2.78 µM

Q: What about the TGI (MCF7 breast) of the same molecule?
A: 17.1 µM

Q: And the GI50 (OVCAR-5 ovarian)?
A: 17.9 µM

Q: And the TGI (OVCAR-5 ovarian)?
A: 36.5 µM

Q: And the GI50 (RPMI-8226 leukemia)?
A: 4.33 µM

Q: What about the TGI (RPMI-8226 leukemia) of the same molecule?
A: > 100 µM

Q: What about the GI50 (SF-539 CNS) of the same molecule?
A: 1.47 µM

Q: And the TGI (SF-539 CNS)?
A: 3.12 µM

Q: And the GI50 (T-47D breast)?
A: 5.38 µM

Q: And the TGI (T-47D breast)?
A: 23.3 µM

Q: And the GI50 (UACC-257 melanoma)?
A: 10.8 µM

Q: What about the TGI (UACC-257 melanoma) of the same molecule?
A: 29.4 µM

Q: And the GI50 (UACC-62 melanoma)?
A: 3.68 µM

Q: And the TGI (UACC-62 melanoma)?
A: 13.6 µM

Q: What does the source list for COc1cc(O)ccc1C(=S)SC?
A: TGI (HOP-92 NSCLC): > 100 µM; TGI (M14 melanoma): > 100 µM; TGI (MCF7 breast): > 100 µM; TGI (OVCAR-5 ovarian): > 100 µM; TGI (RPMI-8226 leukemia): 55.6 µM; TGI (SF-539 CNS): > 100 µM; TGI (T-47D breast): > 100 µM; TGI (UACC-257 melanoma): > 100 µM; TGI (UACC-62 melanoma): > 100 µM

Q: What does the source list for O=C(Nc1sc2c(c1C(=O)O)CCCC2)c1ccco1?
A: GI50 (CCRF-CEM leukemia): > 50 µM; TGI (CCRF-CEM leukemia): > 50 µM; GI50 (HOP-92 NSCLC): > 50 µM; TGI (HOP-92 NSCLC): > 50 µM; GI50 (M14 melanoma): > 50 µM; TGI (M14 melanoma): > 50 µM; GI50 (MCF7 breast): 26.5 µM; TGI (MCF7 breast): > 50 µM; GI50 (RPMI-8226 leukemia): > 50 µM; TGI (RPMI-8226 leukemia): > 50 µM; GI50 (SF-539 CNS): 47.5 µM; TGI (SF-539 CNS): > 50 µM; GI50 (T-47D breast): > 50 µM; TGI (T-47D breast): > 50 µM; GI50 (UACC-257 melanoma): > 50 µM; TGI (UACC-257 melanoma): > 50 µM; GI50 (UACC-62 melanoma): > 50 µM; TGI (UACC-62 melanoma): > 50 µM
